Test system: MV-4-11 cells
Experiment: Gene expression microarray analysis (Affymetrix PrimeView) and GSEA
Assay type: cell-based, human
Parameters: RFU PODN (11730768_x_at) / Fold change /veh PODN (11730768_x_at) / RFU LINC00158 (11744669_a_at) / Fold change /veh LINC00158 (11744669_a_at) / RFU DUSP10 (11751237_a_at) / Fold change /veh DUSP10 (11751237_a_at) / RFU ID3 (11757404_x_at) / Fold change /veh ID3 (11757404_x_at) / RFU PLEKHG5 (11737974_s_at) / Fold change /veh PLEKHG5 (11737974_s_at) / RFU LRRC4B (11730491_at) / Fold change /veh LRRC4B (11730491_at) / RFU GIMAP4 (11747438_a_at) / Fold change /veh GIMAP4 (11747438_a_at) / RFU KRT8 (11758183_x_at) / Fold change /veh KRT8 (11758183_x_at) / RFU CNN1 (11734310_a_at) / Fold change /veh CNN1 (11734310_a_at) / RFU VPS37D (11726825_at) / Fold change /veh VPS37D (11726825_at) / RFU C10orf10 (11716522_x_at) / Fold change /veh C10orf10 (11716522_x_at) / RFU KIR2DL2 /// KIR2DL4 /// KIR2DL5A /// KIR2DL5B /// KIR2DS1 /// KIR2DS2 /// KIR2DS3 /// KIR2DS4 /// KIR3DL3 /// KIR3DL3 /// KIR3DS1 (11738374_at) / Fold change /veh KIR2DL2 /// KIR2DL4 /// KIR2DL5A /// KIR2DL5B /// KIR2DS1 /// KIR2DS2 /// KIR2DS3 /// KIR2DS4 /// KIR3DL3 /// KIR3DL3 /// KIR3DS1 (11738374_at) / RFU C1QL1 (11718748_at) / Fold change /veh C1QL1 (11718748_at) / RFU TMPRSS4 (11747572_a_at) / Fold change /veh TMPRSS4 (11747572_a_at) / RFU HAMP (11756126_x_at) / Fold change /veh HAMP (11756126_x_at) / RFU RNFT2 (11725882_a_at) / Fold change /veh RNFT2 (11725882_a_at) / RFU NR4A2 (11747474_a_at) / Fold change /veh NR4A2 (11747474_a_at) / RFU ABCC12 (11746883_a_at) / Fold change /veh ABCC12 (11746883_a_at) / RFU TMEM136 (11760407_x_at) / Fold change /veh TMEM136 (11760407_x_at) / RFU CLDN22 /// WWC2 (11732394_at) / Fold change /veh CLDN22 /// WWC2 (11732394_at) / RFU HLA-DPB1 (11760878_x_at) / Fold change /veh HLA-DPB1 (11760878_x_at) / RFU SPINT1 (11716480_a_at) / Fold change /veh SPINT1 (11716480_a_at) / RFU GAP43 (11754022_s_at) / Fold change /veh GAP43 (11754022_s_at) / RFU A4GNT (11735810_at) / Fold change /veh A4GNT (11735810_at) / RFU PRB3 (11715151_x_at) / Fold change /veh PRB3 (11715151_x_at) / RFU TUBB4B (11761932_at) / Fold change /veh TUBB4B (11761932_at) / RFU CAPN14 (11732068_a_at) / Fold change /veh CAPN14 (11732068_a_at) / RFU TMCC2 (11721928_a_at) / Fold change /veh TMCC2 (11721928_a_at) / RFU IRGQ (11745062_a_at) / Fold change /veh IRGQ (11745062_a_at) / RFU FAM174B (11720279_a_at) / Fold change /veh FAM174B (11720279_a_at) / RFU TMPRSS4 (11748680_a_at) / Fold change /veh TMPRSS4 (11748680_a_at) / RFU FAM212B (11763350_a_at) / Fold change /veh FAM212B (11763350_a_at) / RFU PLEKHG5 (11743358_a_at) / Fold change /veh PLEKHG5 (11743358_a_at) / RFU ZSCAN30 (11745921_a_at) / Fold change /veh ZSCAN30 (11745921_a_at) / RFU CMKLR1 (11741424_a_at) / Fold change /veh CMKLR1 (11741424_a_at) / RFU LOC101060620 /// MAPK8IP1 (11723275_at) / Fold change /veh LOC101060620 /// MAPK8IP1 (11723275_at) / RFU SPTSSB (11747773_x_at) / Fold change /veh SPTSSB (11747773_x_at) / RFU PRSS12 (11739890_at) / Fold change /veh PRSS12 (11739890_at) / RFU BIN1 (11741810_x_at) / Fold change /veh BIN1 (11741810_x_at) / RFU WNT11 (11732464_a_at) / Fold change /veh WNT11 (11732464_a_at) / RFU C10orf10 (11716521_a_at) / Fold change /veh C10orf10 (11716521_a_at) / RFU C5orf56 (11738089_at) / Fold change /veh C5orf56 (11738089_at) / RFU CYB561 (11721691_x_at) / Fold change /veh CYB561 (11721691_x_at) / RFU ANKRD19P (11752326_a_at) / Fold change /veh ANKRD19P (11752326_a_at) / RFU OR2T12 /// OR2T33 /// OR2T8 (11738714_s_at) / Fold change /veh OR2T12 /// OR2T33 /// OR2T8 (11738714_s_at) / RFU VCAN (11748164_a_at) / Fold change /veh VCAN (11748164_a_at) / RFU JSRP1 (11732532_at) / Fold change /veh JSRP1 (11732532_at) / RFU KRTAP10-11 (11738290_x_at) / Fold change /veh KRTAP10-11 (11738290_x_at) / RFU MYO3A (11730013_a_at) / Fold change /veh MYO3A (11730013_a_at) / RFU EBF3 (11725865_a_at) / Fold change /veh EBF3 (11725865_a_at) / RFU CAMK2N1 (11719241_x_at) / Fold change /veh CAMK2N1 (11719241_x_at) / RFU C5orf56 (11738088_a_at) / Fold change /veh C5orf56 (11738088_a_at) / RFU OLFML3 (11715873_a_at) / Fold change /veh OLFML3 (11715873_a_at) / RFU LOC100653217 /// NTM (11731650_a_at) / Fold change /veh LOC100653217 /// NTM (11731650_a_at) / RFU MAPK11 (11762145_a_at) / Fold change /veh MAPK11 (11762145_a_at) / RFU FIZ1 (11724087_x_at) / Fold change /veh FIZ1 (11724087_x_at) / RFU OASL (11726364_x_at) / Fold change /veh OASL (11726364_x_at) / RFU SOX15 (11748057_x_at) / Fold change /veh SOX15 (11748057_x_at) / RFU CD79A (11719716_a_at) / Fold change /veh CD79A (11719716_a_at) / RFU HIST1H1D (11736915_at) / Fold change /veh HIST1H1D (11736915_at) / RFU CASKIN2 (11723855_a_at) / Fold change /veh CASKIN2 (11723855_a_at) / RFU LOC730098 (11760151_x_at) / Fold change /veh LOC730098 (11760151_x_at) / RFU OR4N2 (11742367_at) / Fold change /veh OR4N2 (11742367_at) / RFU PRRT2 (11749266_a_at) / Fold change /veh PRRT2 (11749266_a_at) / RFU SNX32 (11753110_a_at) / Fold change /veh SNX32 (11753110_a_at) / RFU CDHR5 (11726645_a_at) / Fold change /veh CDHR5 (11726645_a_at) / RFU RCAN1 (11760418_a_at) / Fold change /veh RCAN1 (11760418_a_at) / RFU FAM167A (11723789_a_at) / Fold change /veh FAM167A (11723789_a_at) / RFU FAM26E (11764081_at) / Fold change /veh FAM26E (11764081_at) / RFU ISYNA1 (11749810_s_at) / Fold change /veh ISYNA1 (11749810_s_at) / RFU ACY1 (11761880_at) / Fold change /veh ACY1 (11761880_at) / RFU 11764098_at / Fold change /veh 11764098_at / RFU SAMD14 (11745864_x_at) / Fold change /veh SAMD14 (11745864_x_at) / RFU NPB (11741838_a_at) / Fold change /veh NPB (11741838_a_at) / RFU TMPRSS6 (11731388_a_at) / Fold change /veh TMPRSS6 (11731388_a_at) / RFU KRTAP10-2 (11738614_at) / Fold change /veh KRTAP10-2 (11738614_at) / RFU ARHGAP8 /// PRR5-ARHGAP8 (11727945_x_at) / Fold change /veh ARHGAP8 /// PRR5-ARHGAP8 (11727945_x_at) / RFU KRTAP5-7 /// NADSYN1 (11734609_at) / Fold change /veh KRTAP5-7 /// NADSYN1 (11734609_at) / RFU RASL12 (11751679_a_at) / Fold change /veh RASL12 (11751679_a_at) / RFU CDKN2B (11736163_a_at) / Fold change /veh CDKN2B (11736163_a_at) / RFU PRF1 (11729649_at) / Fold change /veh PRF1 (11729649_at) / RFU, ZNF638 /// ZNF638-IT1 / Fold change vs veh, ZNF638 /// ZNF638-IT1 / RFU, PANK3 / Fold change vs veh, PANK3 / RFU, SH3YL1 / Fold change vs veh, SH3YL1 / RFU, ZEB2 / Fold change vs veh, ZEB2 / RFU, NRIP1 / Fold change vs veh, NRIP1 / RFU, PTTG1IP / Fold change vs veh, PTTG1IP / RFU, CAPN2 / Fold change vs veh, CAPN2 / RFU, MED14 / Fold change vs veh, MED14 / RFU, SNORA58 / Fold change vs veh, SNORA58 / RFU, C1orf63 / Fold change vs veh, C1orf63 / RFU, LRRFIP1 / Fold change vs veh, LRRFIP1 / RFU, NDUFAF7 / Fold change vs veh, NDUFAF7 / RFU, SLC12A2 / Fold change vs veh, SLC12A2 / RFU, IBTK / Fold change vs veh, IBTK / RFU, ESF1 / Fold change vs veh, ESF1 / Fold change vs veh, TMEM50B / RFU, TAOK1 / Fold change vs veh, TAOK1 / RFU, ACBD3 / Fold change vs veh, ACBD3 / RFU, TMA16 / Fold change vs veh, TMA16 / RFU, RWDD3 / Fold change vs veh, RWDD3 / RFU, BCAT1 / Fold change vs veh, BCAT1 / RFU, EDEM3 / Fold change vs veh, EDEM3 / RFU, TMEM33 / Fold change vs veh, TMEM33 / RFU, WDR75 / Fold change vs veh, WDR75 / RFU, AHCTF1 / Fold change vs veh, AHCTF1 / RFU, TFRC / Fold change vs veh, TFRC / RFU, ZDHHC17 / Fold change vs veh, ZDHHC17 / RFU, NOM1 / Fold change vs veh, NOM1 / RFU, ARL8B / Fold change vs veh, ARL8B / RFU, ZBTB11 / Fold change vs veh, ZBTB11 / RFU, TAMM41 / Fold change vs veh, TAMM41 / RFU, KIAA1704 /// LOC100996395 / Fold change vs veh, KIAA1704 /// LOC100996395 / RFU, ING1 / Fold change vs veh, ING1 / RFU, TRMT61B / Fold change vs veh, TRMT61B / RFU, FUBP3 / Fold change vs veh, FUBP3 / RFU, TP53 / Fold change vs veh, TP53 / RFU, TNKS2 / Fold change vs veh, TNKS2 / RFU, ZFP14 / Fold change vs veh, ZFP14 / RFU, ACTR2 / Fold change vs veh, ACTR2 / RFU, PPP3R1 / Fold change vs veh, PPP3R1 / RFU, PIK3R1 / Fold change vs veh, PIK3R1 / RFU, HNRNPA1 / Fold change vs veh, HNRNPA1 / RFU, RNF170 / Fold change vs veh, RNF170 / RFU, ZNF28 / Fold change vs veh, ZNF28 / RFU, RNGTT / Fold change vs veh, RNGTT / RFU, OGT / Fold change vs veh, OGT / RFU, BRD1 / Fold change vs veh, BRD1 / RFU, MARS / Fold change vs veh, MARS / RFU, ZNF655 / Fold change vs veh, ZNF655 / RFU, FAHD1 / Fold change vs veh, FAHD1 / RFU, BDP1 / Fold change vs veh, BDP1 / RFU, LRRCC1 / Fold change vs veh, LRRCC1 / RFU, ARID1A / Fold change vs veh, ARID1A / RFU, ZNF146 / Fold change vs veh, ZNF146 / RFU, ZNF330 / Fold change vs veh, ZNF330 / RFU, GPN3 / Fold change vs veh, GPN3 / RFU, C9orf123 / Fold change vs veh, C9orf123 / RFU, N4BP2L2 / Fold change vs veh, N4BP2L2 / RFU, ARFIP1 / Fold change vs veh, ARFIP1 / RFU, FAM179B / Fold change vs veh, FAM179B / RFU, BCL10 / Fold change vs veh, BCL10 / RFU, UHRF1BP1L / Fold change vs veh, UHRF1BP1L / RFU, BET1 / Fold change vs veh, BET1 / RFU, CNOT2 / Fold change vs veh, CNOT2 / RFU, ZNF268 / Fold change vs veh, ZNF268 / Fold change vs veh, ZNF507 / RFU, DGCR2 / Fold change vs veh, DGCR2 / RFU, WDSUB1 / Fold change vs veh, WDSUB1 / Fold change vs veh, HSP90B1 /// MIR3652 / RFU, ADSS / Fold change vs veh, ADSS / RFU, GK / Fold change vs veh, GK / RFU, ZNF148 / Fold change vs veh, ZNF148 / RFU, TAF9 / Fold change vs veh, TAF9 / RFU, SLC1A5 / Fold change vs veh, SLC1A5 / RFU, SLMO2 / Fold change vs veh, SLMO2 / RFU, ABCC4 / Fold change vs veh, ABCC4 / RFU, LOC101060439 /// RAP1B / Fold change vs veh, LOC101060439 /// RAP1B / RFU, RFX7 / Fold change vs veh, RFX7 / RFU, GTPBP10 / Fold change vs veh, GTPBP10 / RFU, CNEP1R1 / Fold change vs veh, CNEP1R1 / RFU, BIVM-ERCC5 /// ERCC5 / Fold change vs veh, BIVM-ERCC5 /// ERCC5 / RFU, ILF3 / Fold change vs veh, ILF3 / RFU 11762660_at / Fold change /veh 11762660_at / RFU VCAN (11757783_s_at) / Fold change /veh VCAN (11757783_s_at) / RFU DDX43 (11728927_at) / Fold change /veh DDX43 (11728927_at) / RFU KRT8 (11758188_x_at) / Fold change /veh KRT8 (11758188_x_at) / RFU NKD1 (11759106_at) / Fold change /veh NKD1 (11759106_at) / RFU SRD5A1 (11742802_a_at) / Fold change /veh SRD5A1 (11742802_a_at) / RFU TPSAB1 /// TPSB2 (11721975_s_at) / Fold change /veh TPSAB1 /// TPSB2 (11721975_s_at) / RFU GSTM3 (11746129_a_at) / Fold change /veh GSTM3 (11746129_a_at) / RFU IL23R (11737362_x_at) / Fold change /veh IL23R (11737362_x_at) / RFU TMEM51 (11727254_a_at) / Fold change /veh TMEM51 (11727254_a_at) / RFU PIWIL2 (11732686_x_at) / Fold change /veh PIWIL2 (11732686_x_at) / RFU ORM1 (11744905_x_at) / Fold change /veh ORM1 (11744905_x_at) / RFU CCDC152 (11743942_at) / Fold change /veh CCDC152 (11743942_at) / RFU ECM1 (11717891_a_at) / Fold change /veh ECM1 (11717891_a_at) / RFU IL23R (11748794_a_at) / Fold change /veh IL23R (11748794_a_at) / RFU TNFAIP8L3 (11732012_x_at) / Fold change /veh TNFAIP8L3 (11732012_x_at) / RFU MBOAT4 (11741988_at) / Fold change /veh MBOAT4 (11741988_at) / RFU 11764193_at / Fold change /veh 11764193_at / RFU TMEM53 (11763286_at) / Fold change /veh TMEM53 (11763286_at) / RFU MAGEB2 (11727129_at) / Fold change /veh MAGEB2 (11727129_at) / RFU TMEM200A (11744735_a_at) / Fold change /veh TMEM200A (11744735_a_at) / RFU CCDC152 (11751479_a_at) / Fold change /veh CCDC152 (11751479_a_at) / RFU FAM211A (11726209_a_at) / Fold change /veh FAM211A (11726209_a_at) / RFU RGS16 (11746705_a_at) / Fold change /veh RGS16 (11746705_a_at) / RFU VCAN (11755009_s_at) / Fold change /veh VCAN (11755009_s_at) / RFU RHOB (11743442_s_at) / Fold change /veh RHOB (11743442_s_at) / RFU RGS16 (11720943_a_at) / Fold change /veh RGS16 (11720943_a_at) / RFU RGS16 (11720944_at) / Fold change /veh RGS16 (11720944_at) / RFU, VPS4B / Fold change vs veh, VPS4B / RFU, CREB1 / Fold change vs veh, CREB1 / RFU, DNAJC13 / Fold change vs veh, DNAJC13 / RFU, GNAQ / Fold change vs veh, GNAQ / RFU, CDK5R1 / Fold change vs veh, CDK5R1 / RFU, ZRANB3 / Fold change vs veh, ZRANB3 / RFU, CUL4A / Fold change vs veh, CUL4A / RFU, CCNY / Fold change vs veh, CCNY / RFU, UFL1 / Fold change vs veh, UFL1 / RFU, COG3 / Fold change vs veh, COG3 / RFU, DIAPH2 / Fold change vs veh, DIAPH2 / RFU, SKA2 / Fold change vs veh, SKA2 / RFU, AFF3 / Fold change vs veh, AFF3 / RFU, LMF1 / Fold change vs veh, LMF1 / RFU, IPO11 / Fold change vs veh, IPO11 / RFU, DFFB / Fold change vs veh, DFFB / RFU, FOXP1 / Fold change vs veh, FOXP1 / RFU, CARD8 / Fold change vs veh, CARD8 / RFU, STRN3 / Fold change vs veh, STRN3 / RFU, ADK / Fold change vs veh, ADK / RFU, RASSF2 / Fold change vs veh, RASSF2 / RFU, WIPF1 / Fold change vs veh, WIPF1 / RFU, LARP1B / Fold change vs veh, LARP1B / RFU, RASA1 / Fold change vs veh, RASA1 / RFU, RB1 / Fold change vs veh, RB1 / RFU, PPFIA1 / Fold change vs veh, PPFIA1 / RFU, MAT2A / Fold change vs veh, MAT2A / RFU, CCT5 / Fold change vs veh, CCT5 / RFU, WDR92 / Fold change vs veh, WDR92 / RFU, CUX1 / Fold change vs veh, CUX1 / RFU, TTC7A / Fold change vs veh, TTC7A / RFU, TMEM135 / Fold change vs veh, TMEM135 / RFU, DEPTOR / Fold change vs veh, DEPTOR / RFU, CPM / Fold change vs veh, CPM / RFU, DNAJB6 / Fold change vs veh, DNAJB6 / RFU, CACNA2D3 / Fold change vs veh, CACNA2D3 / RFU, DTX4 / Fold change vs veh, DTX4 / RFU, TFCP2 / Fold change vs veh, TFCP2 / RFU, GMCL1 /// GMCL1P1 / Fold change vs veh, GMCL1 /// GMCL1P1 / RFU, AEBP2 / Fold change vs veh, AEBP2 / RFU, SNHG1 /// SNORD22 /// SNORD25 /// SNORD26 /// SNORD27 /// SNORD28 /// SNORD29 /// SNORD31 / Fold change vs veh, SNHG1 /// SNORD22 /// SNORD25 /// SNORD26 /// SNORD27 /// SNORD28 /// SNORD29 /// SNORD31 / Fold change (Aza/veh), C12orf56 (ProbeSet 11735607_a_at) / Fold change (ACY-1035/veh), C12orf56 (ProbeSet 11735607_a_at) / Fold change (Aza/veh), FGFR1OP (ProbeSet 11751329_s_at) / Fold change (ACY-1035/veh), FGFR1OP (ProbeSet 11751329_s_at) / Fold change (Aza/veh), VPS36 (ProbeSet 11739960_a_at) / Fold change (ACY-1035/veh), VPS36 (ProbeSet 11739960_a_at) / RFU SYPL1 (11715823_x_at) / Fold change /veh SYPL1 (11715823_x_at) / RFU IGFBP7 (11715501_s_at) / Fold change /veh IGFBP7 (11715501_s_at) / RFU REEP3 (11722064_at) / Fold change /veh REEP3 (11722064_at) / RFU IGLL1 (11728026_x_at) / Fold change /veh IGLL1 (11728026_x_at): dose or concentration left out as unconfirmed
Details: ProbeSet 11745260_x_at; LIST B

In the case of Nc1ncn([C@@H]2O[C@H](CO)[C@@H](O)[C@H]2O)c(=O)n1 [azacitidine], the “RFU, SLC12A2” value is reported as 29.09 RFU.

Reference: article PMC5218480 (PLoS ONE, 2017)
